Laboratory results taken from patent US6787315B2, “Methods for identifying ligand binding sites in a biomolecule” (priority 2001, dated 2004).

What was measured:
Parameters in all cases: species or system E. coli
[1] = test system: modified 16S RNA (5IUtetra; 5-iodouridine at position 13 in the UUCG tetraloop); assay: ESI-FT-ICR MS ligand binding to 27-mer 16S RNA modified at the tetraloop
Experimental: (§1) The following examples illustrate preferred embodiments of the present invention using mass spectrometry. Experiments were performed using a 7.0 Tesla Fourier transform ion cyclotron resonance (FT-ICR) mass spectrometer with an electrospray ionization source operating in the negative mode. A −3000 V difference was employed between the spray tip and the inlet capillary to generate the electrospray. Samples were introduced at a flow rate of 1.5 uL/min using a Harvard syringe pump and a 50 uL glass syringe. The desolvation of the electrospray droplets was aided by a flow of countercurrent gas at 1 L/min. Ions were accumulated for 1.0 sec in an intermediate hexapole ion storage region at 1.0×10^−5 mbar. Following transfer to the FT-ICR analysis cell, the image current was measured over a mass range of 500-4000 m/z. Typically, a total of 32 transients containing 512 kbytes were summed prior to Fourier transformation. […]
(§2) An aqueous solution containing 100 mM ammonium acetate buffer (pH 7.0), 33% isopropyl alcohol, gentamicin (2 μM, present in three forms), 16S RNA (2.5 μM) and a modified 16S RNA (2.5 μM) was prepared. […] The peaks were integrated and ion abundances determined. Fractions of 16S+genta and 5IUtetra+genta complexes were determined to be 70.4% and 68.2±1% for the free 16S RNA and 5IUtetraRNA, respectively.

[2] = test system: modified 16S RNA (5IU1406; 5-iodouridine at position U1406); assay: ESI-FT-ICR MS ligand binding to 27-mer 16S RNA modified at U1406; conditions: Example 2: gentamicin 2 μM
Experimental: (§3) The following examples illustrate preferred embodiments of the present invention using mass spectrometry. Experiments were performed using a 7.0 Tesla Fourier transform ion cyclotron resonance (FT-ICR) mass spectrometer with an electrospray ionization source operating in the negative mode. A −3000 V difference was employed between the spray tip and the inlet capillary to generate the electrospray. Samples were introduced at a flow rate of 1.5 uL/min using a Harvard syringe pump and a 50 uL glass syringe. The desolvation of the electrospray droplets was aided by a flow of countercurrent gas at 1 L/min. Ions were accumulated for 1.0 sec in an intermediate hexapole ion storage region at 1.0×10^−5 mbar. Following transfer to the FT-ICR analysis cell, the image current was measured over a mass range of 500-4000 m/z. Typically, a total of 32 transients containing 512 kbytes were summed prior to Fourier transformation. The m/z values were calibrated on the signal from the [M-5H^+]^5− charge state of the free RNA at 1726.509.
as §2, with “μM),” for “μM, present in three forms),”, “5IU1406+genta” for “5IUtetra+genta”, “66.8%” for “70.4%”, “28.1±1%” for “68.2±1%”, “5IU1406 RNA,” for “5IUtetraRNA,”

[3] = test system: modified 16S RNA (5′-PS-G1491; 3′-phosphorothioate at G1491, C12O6 PEG mass tag); assay: ESI-FT-ICR MS ligand binding to 27-mer 16S RNA modified at G1491
Experimental: as §3
An aqueous solution containing 100 mM ammonium acetate buffer (pH 7.0), 33% isopropyl alcohol, gentamicin (1 μM), 16S RNA (5 μM) and a modified 16S RNA (5.5 μM) was prepared. Modified 27-mer 16S RNA contained a 3′-phosphorothioate residue at position G1491 at the position of a G-C base pair (E. coli numbering system) and a C12O6 PEG mass tag off the 5′-hydroxyl group. Mass spectra were obtained using the standard protocol described above. The resulting mass spectra contained identifiable peaks corresponding to free 16S RNA (m/z 1726.5), free modified 16S RNA(5′-PS-G1491; m/z 1779.3), 16S complexed with the three forms of gentamicin present in the sample (16S+genta; m/z 1816-1825), and 16S(5′-PS-G1491) complexed with the three forms of gentamicin (5′-PS-G1491+genta; m/z 1869-1875). The peaks from the complexes formed from the lowest mass form of gentamicin were integrated and ion abundances determined. Fractions of 16S+genta and 5′-PS-G1491+genta complexes were determined to be 0.127 and 0.140±0.01% for the free 16S RNA and 5′-PS-G1491 RNA, respectively.
An aqueous solution containing 100 mM ammonium acetate buffer (pH 7.0), 33% isopropyl alcohol, ribostamycin (1 μM), 16S RNA (5 μM) and a modified 16S RNA (5.5 uM) was prepared. Modified 27 mer 16S RNA contained a 3′-phosphorothioate residue at position G1491 at the position of a G-C base pair (E. coli numbering system) and a C12O6 PEG mass tag off the 5′-hydroxyl group. […] The peaks from the complexes formed between ribostamycin and the RNA were integrated and ion abundances determined. Fractions of 16S+ribost and 5′-PS-G1491+ribost complexes were determined to be 0.105 and 0.100±0.005% for the free 16S RNA and 5′-PS-G1491 RNA, respectively.

[4] = test system: modified 16S RNA (5IU1495; 5-iodouridine at position U1495, PEG-6 chain at 5′-hydroxyl); assay: ESI-FT-ICR MS ligand binding to 27-mer 16S RNA modified at U1495; conditions: Example 3: ribostamycin 2.5 μM
Experimental: as §1
An aqueous solution containing 50 mM ammonium acetate buffer (pH 7.0), 33% isopropyl alcohol, ribostamycin (2.5 μM), 16S RNA (2.5 μM) and a modified 16S RNA (2.5 μM) was prepared. […] The peaks were integrated and ion abundances determined. Fractions of 16S+ribost and 5IU1495+ribost complexes were determined to be 67.6% and 29.9±1% for the free 16S RNA and 5IU1495 RNA, respectively.

Row | Compound | Effect of 5-iodouridine residue in the tetraloop on the abundance of the gentamicin-RNA complex ([1]; Example 1: 5IUtetra versus 16S RNA) | Fraction of 5IUtetra+genta complex ([1]; Example 1: gentamicin 2 μM (three forms), 16S RNA 2.5 μM with 5IUtetra RNA 2.5 μM, 100 mM ammonium acetate pH 7.0, 33% isopropyl alcohol) | Amount of 5IU1406+genta as % of the amount of 16S+genta [2] | Fraction of 5IU1406+genta complex ([2]; 16S RNA 2.5 μM with 5IU1406 RNA 2.5 μM, 100 mM ammonium acetate pH 7.0, 33% isopropyl alcohol) | Amount of 5′-PS-G1491+genta as % of the amount of 16S+genta ([3]; Example 4: gentamicin 1 μM) | Fraction of 5′-PS-G1491+genta complex ([3]; Example 4: gentamicin 1 μM (lowest mass form integrated), 16S RNA 5 μM with 5′-PS-G1491 RNA 5.5 μM, 100 mM ammonium acetate pH 7.0, 33% isopropyl alcohol) | Amount of 5IU1495+ribost as % of the amount of 16S+ribost [4] | Fraction of 5IU1495+ribost complex ([4]; 16S RNA 2.5 μM with 5IU1495 RNA 2.5 μM, 50 mM ammonium acetate pH 7.0, 33% isopropyl alcohol) | Amount of 5′-PS-G1491+ribost as % of the amount of 16S+ribost ([3]; Example 5: ribostamycin 1 μM) | Fraction of 5′-PS-G1491+ribost complex ([3]; Example 5: ribostamycin 1 μM, 16S RNA 5 μM with 5′-PS-G1491 RNA 5.5 uM, 100 mM ammonium acetate pH 7.0, 33% isopropyl alcohol)
1 | gentamicin | no effect | 68.2±1% | 42% | 28.1±1% | 110% | 0.140±0.01 fraction (unitless) |  |  |  | 
2 | NC[C@H]1O[C@H](O[C@H]2[C@H](O[C@@H]3O[C@H](CO)[C@@H](O)[C@H]3O)[C@@H](O)[C@H](N)C[C@@H]2N)[C@H](N)[C@@H](O)[C@@H]1O [ribostamycin] |  |  |  |  |  |  | 44% | 29.9±1% | 94% | 0.100±0.005%
